One test concerns the target Chk-1 kinase (Homo sapiens (Human), UniProt O14757). The test can be described thus: Chk-1 kinase inhibiting activity (33P-ATP radiometric filter assay, CHKtide substrate). The class given is biochemical. The note with it: recombinant full length GST-tagged CHK-1 0.5 nM, CHKtide 20 μM, 120 minutes at room temperature; read-out: IC50 against Chk-1 kinase. How it is done: The compounds of the invention were tested for activity against Chk-1 kinase using the materials and protocols set out below.
Base Reaction buffer: 20 mM Hepes (pH 7.5), 10 mM MgCl2, 1 mM EGTA, 0.02% Brij35, 0.02 mg/ml BSA, 0.1 mM Na3VO4, 2 mM DTT, 1% DMSO
Required cofactors are added individually to each kinase reaction
(i) Prepare indicated substrate in freshly prepared Base Reaction Buffer
(ii) Deliver any required cofactors to the substrate solution above
(iii) Deliver indicated kinase into the substrate solution and gently mix
(iv) Deliver compounds in DMSO into the kinase reaction mixture
(v) Deliver ^33P-ATP (specific activity 0.01 μCi/μl final) into the reaction mixture to initiate the reaction.
(vi) Incubate kinase reaction for 120 minutes at room temperature
(vii) Reactions are spotted onto P81 ion exchange paper (Whatman #3698-915)
(viii) Wash filters extensively in 0.1% phosphoric acid.
(ix) Dry filters and measure counts in scintillation counter
Recombinant full length construct, N-terminal GST tagged, purified from insect cells.
No special measures were taken to activate this kinase.
Final concentration in assay=0.5 nM
Peptide sequence: [[…]]
Final concentration in assay=20 μM
No additional cofactors are added to the reaction mixture
From the results obtained by following the above protocol, the IC50 values against Chk-1 kinase of a number of the compounds of the Examples were determined and these are shown in Table 3.

In another test the test system is MV4-11 cells. The test can be described thus: Inhibition of cell growth in MV4-11 cells (Alamar blue, 72 h). The settings on record: Homo sapiens, 72 h incubation. The class given is cell-based. How it is done:
(§1) Studies were carried out to test the effect of compounds on the inhibition of cell growth in MOLM-13 and MV4-11 cells.
(§2) The following protocol was used:
(§3) (a) Cells were seeded in 96-well plates at cell densities of 2500/well (MOLM-13) and 10,000/well (MV4-11). Cells were then incubated overnight prior to addition of compound or vehicle control.
(§4) (b) Test compounds were prepared from 10 mM DMSO stocks to give a final concentration range of 10 μM, 3 μM, 1 μM, 0.3 μM, […], 0.03 μM, 0.01 μM, […] vehicle control. The DMSO content was constant at 0.1%.
(§5) (c) Test compounds were incubated with the cells for 72 h at 37° C. 5% CO2 in a humidified atmosphere.
(§6) (d) Alamar blue 10% (v/v) was then added and incubated for a further 4 h, and fluorescent product detected using the BMG FLUOstar plate reader.
(§7) (e) Media only background values were subtracted and the data analysed using a 4-parameter logistic equation in GraphPad Prism.
For orientation: Alamar Blue is a resazurin reagent that responds to reducing activity.

The test system of a further test is MOLM-13 cells. The test can be described thus: Inhibition of cell growth in MOLM-13 cells (Alamar blue, 72 h). Type of test: cell-based. The note with it: Homo sapiens, 72 h incubation. How it is done: as §1, §2, §3, §4, §5, §6, §7

Structures can show the parent of a compound that is named as a salt.

Chain of Chk-1 kinase (O14757 whole entry): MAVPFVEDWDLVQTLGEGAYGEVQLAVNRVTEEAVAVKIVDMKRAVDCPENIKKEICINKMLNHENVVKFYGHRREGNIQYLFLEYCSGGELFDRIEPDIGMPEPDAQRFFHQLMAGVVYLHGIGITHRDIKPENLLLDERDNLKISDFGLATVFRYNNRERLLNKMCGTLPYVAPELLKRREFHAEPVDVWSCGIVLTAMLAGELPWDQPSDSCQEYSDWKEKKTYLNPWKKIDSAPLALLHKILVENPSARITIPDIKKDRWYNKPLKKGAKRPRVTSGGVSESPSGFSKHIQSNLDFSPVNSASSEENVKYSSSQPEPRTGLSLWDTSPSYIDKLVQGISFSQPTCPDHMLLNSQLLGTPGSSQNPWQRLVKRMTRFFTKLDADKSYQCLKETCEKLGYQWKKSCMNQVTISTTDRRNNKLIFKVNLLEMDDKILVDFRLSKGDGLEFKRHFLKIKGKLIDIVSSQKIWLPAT

Turning to `COc1cc(CCNCC2CCNCC2)c(Cl)cc1NC(=O)Nc1cnc(C#N)cn1` [Example 1, 1-(5-Chloro-2-methoxy-4-{2-[(piperidin-4-ylmethyl)-amino]-ethyl}-phenyl)-3-(5-cyano-pyrazin-2-yl)-urea hydrochloride], the results for the IC50 at Chk-1 kinase, in the test on MV4-11 cells and in the test with MOLM-13 cells were 0.1 nM, 386 nM and 240 nM, respectively.

Consider `COc1cc(CCNCC2CNCCO2)c(Cl)cc1NC(=O)Nc1cnc(C#N)cn1` (centres unmarked) [Example 2, 1-(5-Chloro-2-methoxy-4-{2-[(morpholin-2-ylmethyl)-amino]-ethyl}-phenyl)-3-(5-cyano-pyrazin-2-yl)-urea hydrochloride], for which the IC50 (in general, the point on the concentration scale where inhibition reaches its midpoint) on Chk-1 kinase was found to be 0.09 nM; in the test on MV4-11 cells, 209 nM; in the test with MOLM-13 cells it was 26 nM. `COc1cc(CCNC[C@@H]2CNCCO2)c(Cl)cc1NC(=O)Nc1cnc(C#N)cn1` [Example 3, 1-(5-Chloro-2-methoxy-4-{2-[((R)-1-morpholin-2-ylmethyl)-amino]-ethyl}-phenyl)-3-(5-cyano-pyrazin-2-yl)-urea hydrochloride]: the IC50 on Chk-1 kinase is 0.14 nM; in the test with MV4-11 cells, 173 nM; with MOLM-13 cells, 81 nM. The corresponding values for `COc1cc(CCNC[C@H]2CNCCO2)c(Cl)cc1NC(=O)Nc1cnc(C#N)cn1` [Example 4, 1-(5-Chloro-2-methoxy-4-{2-[((S)-1-morpholin-2-ylmethyl)-amino]-ethyl}-phenyl)-3-(5-cyano-pyrazin-2-yl)-urea hydrochloride] are 0.05 nM, 111 nM and 49 nM. Take `COc1cc(CCNCCN2CCOCC2)c(Cl)cc1NC(=O)Nc1cnc(C#N)cn1` [Example 7, 1-{5-Chloro-2-methoxy-4-[2-(2-morpholin-4-yl-ethylamino)-ethyl]-phenyl}-3-(5-cyano-pyrazin-2-yl)-urea hydrochloride]: the values for the IC50 on Chk-1 kinase, with MV4-11 cells and with MOLM-13 cells were 0.8 nM, 295 nM and 113 nM, respectively. The corresponding values for `CC(C)Oc1cc(CCNCCN2CCOCC2)c(Cl)cc1NC(=O)Nc1cnc(C#N)cn1` [Example 8, 1-{5-Chloro-2-isopropoxy-4-[2-(2-morpholin-4-yl-ethylamino)-ethyl]-phenyl}-3-(5-cyano-pyrazin-2-yl)-urea hydrochloride] are 0.75 nM, 38 nM and 28 nM. As for `COc1cc(CCN[C@H](C)C2CCN(S(C)(=O)=O)CC2)c(Cl)cc1NC(=O)Nc1cnc(C#N)cn1` [Example 13, 1-(5-Chloro-4-{2-[(R)-1-(1-methanesulfonyl-piperidin-4-yl)-ethylamino]-ethyl}-2-methoxy-phenyl)-3-(5-cyano-pyrazin-2-yl)-urea hydrochloride], the IC50 at Chk-1 kinase came out at 0.27 nM. As to `COc1cc(CCNC[C@H]2CN(C(=O)C3CC3)CCO2)c(Cl)cc1NC(=O)Nc1cnc(C#N)cn1` [Example 14, 1-(5-Chloro-4-{2-[((S)-4-cyclopropanecarbonyl-morpholin-2-ylmethyl)-amino]-ethyl}-2-methoxy-phenyl)-3-(5-cyano-pyrazin-2-yl)-urea hydrochloride], the results for the IC50 at Chk-1 kinase and in the test on MV4-11 cells were 0.4 nM and 202 nM, respectively. Turning to `COc1cc(CCNC(=O)[C@H]2CNCCO2)c(Cl)cc1NC(=O)Nc1cnc(C#N)cn1` [Example 15, (R)-Morpholine-2-carboxylic acid (2-{2-chloro-4-[3-(5-cyano-pyrazin-2-yl)-ureido]-5-methoxy-phenyl}-ethyl)-amide hydrochloride], at Chk-1 kinase, the IC50 was 20 nM. In the case of `COc1cc(CCNC(=O)CN2CCOCC2)c(Cl)cc1NC(=O)Nc1cnc(C#N)cn1` [Example 16, N-(2-{2-Chloro-4-[3-(5-cyano-pyrazin-2-yl)-ureido]-5-methoxy-phenyl}-ethyl)-2-morpholin-4-yl-acetamide hydrochloride], the IC50 at Chk-1 kinase stood at 76 nM.

With `COc1cc(CCNC(=O)CN2CCN(C)CC2)c(Cl)cc1NC(=O)Nc1cnc(C#N)cn1` [Example 17, N-(2-{2-Chloro-4-[3-(5-cyano-pyrazin-2-yl)-ureido]-5-methoxy-phenyl}-ethyl)-2-(4-methyl-piperazin-1-yl)-acetamide hydrochloride], the IC50 on Chk-1 kinase was found to be 13 nM.

On to `COc1cc(CCN[C@@H](C)CN2CCOCC2)c(Cl)cc1NC(=O)Nc1cnc(C#N)cn1` [Example 18, 1-{5-Chloro-2-methoxy-4-[2-((S)-1-methyl-2-morpholin-4-yl-ethylamino)-ethyl]-phenyl}-3-(5-cyano-pyrazin-2-yl)-urea hydrochloride], for which the values for the IC50 on Chk-1 kinase and with MV4-11 cells were 0.52 nM and 175 nM, respectively. For `COc1cc(CCNCC(=O)N2CCOCC2)c(Cl)cc1NC(=O)Nc1cnc(C#N)cn1` [Example 19, 1-{5-Chloro-2-methoxy-4-[2-(2-morpholin-4-yl-2-oxo-ethylamino)-ethyl]-phenyl}-3-(5-cyano-pyrazin-2-yl)-urea hydrochloride] the same measures were 1.9 nM and 481 nM. As to `CC(C)Oc1cc(CCNC(=O)[C@H]2CNCCO2)c(Cl)cc1NC(=O)Nc1cnc(C#N)cn1` [Example 20, (R)-Morpholine-2-carboxylic acid (2-{2-chloro-4-[3-(5-cyano-pyrazin-2-yl)-ureido]-5-isopropoxy-phenyl}-ethyl)-amide hydrochloride], the IC50 at Chk-1 kinase is 7.1 nM. For `COc1cc(CCNC[C@H]2CN(C(=O)C3CC3)CCO2)ccc1NC(=O)Nc1cnc(C#N)cn1` [Example 21, 1-(5-Cyano-pyrazin-2-yl)-3-(4-{2-[((S)-4-cyclopropanecarbonyl-morpholin-2-ylmethyl)-amino]-ethyl}-2-methoxy-phenyl)-urea hydrochloride], the IC50 was found to be 10 nM at Chk-1 kinase and 3760 nM in the test with MV4-11 cells. `CC(C)Oc1cc(CCNC(=O)CN2CCN(C)CC2)c(Cl)cc1NC(=O)Nc1cnc(C#N)cn1` [Example 22, N-(2-{2-Chloro-4-[3-(5-cyano-pyrazin-2-yl)-ureido]-5-isopropoxy-phenyl}-ethyl)-2-(4-methyl-piperazin-1-yl)-acetamide hydrochloride]: the IC50 came to 8.2 nM on Chk-1 kinase and 519 nM with MV4-11 cells. For `COc1cc(CCN[C@@H](C)CN2CCOCC2)ccc1NC(=O)Nc1cnc(C#N)cn1` [Example 23, 1-(5-Cyano-pyrazin-2-yl)-3-{2-methoxy-4-[2-((S)-1-methyl-2-morpholin-4-yl-ethylamino)-ethyl]-phenyl}-urea hydrochloride] the same measures were 19 nM and 4790 nM.

Consider `COc1cc(CCN[C@H](C)CN2CCOCC2)c(Cl)cc1NC(=O)Nc1cnc(C#N)cn1` [Example 24, 1-{5-Chloro-2-methoxy-4-[2-((R)-1-methyl-2-morpholin-4-yl-ethylamino)-ethyl]-phenyl}-3-(5-cyano-pyrazin-2-yl)-urea hydrochloride], for which the concentration for half-maximal inhibition (IC50) at Chk-1 kinase was 1.1 nM. Regarding `COc1cc(OCCNCCN2CCOCC2)c(Cl)cc1NC(=O)Nc1cnc(C#N)cn1` [Example 25, 1-{5-Chloro-2-methoxy-4-[2-(2-morpholin-4-yl-ethylamino)-ethoxy]-phenyl}-3-(5-cyano-pyrazin-2-yl)-urea hydrochloride], the IC50 at Chk-1 kinase is 0.61 nM. `COc1cc(CCNCC(=O)N2CCN(C)CC2)c(Cl)cc1NC(=O)Nc1cnc(C#N)cn1` [Example 26, 1-(5-Chloro-2-methoxy-4-{2-[2-(4-methyl-piperazin-1-yl)-2-oxo-ethylamino]-ethyl}-phenyl)-3-(5-cyano-pyrazin-2-yl)-urea hydrochloride]: the IC50 on Chk-1 kinase stood at 0.58 nM; in the test on MV4-11 cells, 800 nM.

As to `CC(C)Oc1cc(CCNCC(=O)N2CCOCC2)c(Cl)cc1NC(=O)Nc1cnc(C#N)cn1` [Example 27, 1-{5-Chloro-2-isopropoxy-4-[2-(2-morpholin-4-yl-2-oxo-ethylamino)-ethyl]-phenyl}-3-(5-cyano-pyrazin-2-yl)-urea hydrochloride], the IC50 on Chk-1 kinase amounted to 0.21 nM; with MV4-11 cells, 135 nM.

With `COc1cc(CCN[C@@H](C)C(=O)N2CCOCC2)c(Cl)cc1NC(=O)Nc1cnc(C#N)cn1` [Example 28, 1-{5-Chloro-2-methoxy-4-[2-((S)-1-methyl-2-morpholin-4-yl-2-oxo-ethylamino)-ethyl]-phenyl}-3-(5-cyano-pyrazin-2-yl)-urea hydrochloride], the values for the IC50 at Chk-1 kinase and in the test with MV4-11 cells were 0.48 nM and 390 nM, respectively. For `CC(C)Oc1cc(CCN[C@@H](C)C(=O)N2CCOCC2)ccc1NC(=O)Nc1cnc(C#N)cn1` [Example 30, 1-(5-Cyano-pyrazin-2-yl)-3-{2-isopropoxy-4-[2-((S)-1-methyl-2-morpholin-4-yl-2-oxo-ethylamino)-ethyl]-phenyl}-urea hydrochloride], the IC50 on Chk-1 kinase is 2.9 nM.

Values taken from patent US9630931B2, “Pharmaceutically active pyrazine derivatives” (Sentinel Oncology Limited, priority 2011, dated 2017).
